# In patent publication US20140288073A1, “Method of Treating Gastrointestinal Stromal Tumors” (NOVARTIS AG, priority 2011, published 2014):
# “Also recorded” adds a separate entry of the source.
# Key:
# GIST882 cells = test: CellTiter-Glo cell viability/proliferation assay, GIST882; format: cell-based, human; settings: for Inhibition of proliferation as single agent: GIST882 (K642E mutant KIT), Example 2; for Combination Index for 70% inhibition of GIST cell proliferation / Synergy Score for inhibition of GIST cell proliferation: Imatinib combined with the compound
# Excerpt: (§1) GIST882, GIST48 and GIST430 cell lines were obtained from the Brigham and Women's Hospital, Boston, Mass. GIST882 was established from an untreated human GIST with a homozygous missense mutation in KIT exon 13, encoding a […] mutant KIT protein ([…], et al. Oncogene 2001; 20: 5054-5058). […] GIST48 has a primary homozygous exon 11 missense mutation […]) and a secondary heterozygous exon 17 missense mutation […]). GIST430 has a primary heterozygous exon 11 in-frame deletion and a secondary heterozygous exon 13 missense mutation (V654A). GIST-T1 was obtained from Kochi Medical School, Kochi, Japan. It was established from a metastatic human GIST with a heterozygous […] bases in exon 11 of KIT (Taguchi T, Sonobe H, Toyonaga S, et al. Lab Invest 2002; 82: 663-665). […] Cell proliferation was measured using the CellTiter-Glo luminescent cell viability assay (Promega catalog #G755B) and Victor4 plate reader (Perkin Elmer). Synergy scores and CI70 calculations were determined as described elsewhere (Lehar J, Krueger A S, et al. Nat Biotechnol 2009; 27: 659-666).
# GIST-T1 cells = test: CellTiter-Glo cell viability/proliferation assay, GIST-T1; format: cell-based, human; settings: for Inhibition of proliferation as single agent: GIST-T1 (ex11del KIT), Example 2; for Combination Index for 70% inhibition of GIST cell proliferation / Synergy Score for inhibition of GIST cell proliferation: Imatinib combined with the compound
# Excerpt: as §1
# GIST cell lines = test: Combination effect on growth of GIST cell lines (FIG. 6); format: cell-based, human; settings: combination with nilotinib, presence of 20 ng/ml FGF2, monophosphate
# Protocol: FIG. 6: Combination effect of nilotinib plus BGJ398 in GIST cell lines in the presence of 20 ng/ml FGF2.
# 10,000 cells suspended in 80 μl media were seeded into each well of a 96-well cell-culture plate and grown for 24 hours prior to treatment. 10 μl of 60 μg/mL heparin (Sigma Catalog # H3149) was added to each well, and then 10 μl of 50 μg/mL FGF2 (R&D Catalog #233-FB/CF) or media was added to each well of the plates. 10 μl of each of the compound dilutions described above and 10 μl of media were added to wells to a final volume 120 μl such that all pair-wise combinations as well as the single agents were represented. Cells were incubated for 72 hrs at 37° C. in a 5% CO2 incubator following compound addition. Cell proliferation was measured using the CellTiter-Glo luminescent cell viability assay (Promega catalog #G755B) and Victor4 plate reader (Perkin Elmer). Synergy scores and CI70 calculations were determined as described elsewhere (Lehar J, Krueger A S, et al. Nat Biotechnol 2009; 27: 659-666).
# GIST430 cells = test: CellTiter-Glo cell viability/proliferation assay, GIST430; format: cell-based, human; settings: for Inhibition of proliferation as single agent: GIST430 (ex11del/V654A KIT), Example 2; for Growth suppression in combination with imatinib versus single agent treatment / Combination Index for 70% inhibition of GIST cell proliferation / Synergy Score for inhibition of GIST cell proliferation: GIST430; for Combination Index for 70% inhibition of GIST cell proliferation / Synergy Score for inhibition of GIST cell proliferation: Imatinib combined with the compound
# Excerpt: as §1
# GIST48 cells = test: CellTiter-Glo cell viability/proliferation assay, GIST48; format: cell-based, human; settings: for Inhibition of proliferation as single agent: Example 2; for Combination Index for 70% inhibition of GIST cell proliferation / Synergy Score for inhibition of GIST cell proliferation: Imatinib combined with the compound
# Excerpt: as §1
# GIST [1] = settings: cited from earlier work
# GIST [2] = settings: cited from earlier work; remark: listed apart in the source
# [3] = GIST882, absence of FGF2, 3 days
# [4] = GIST882, presence of added FGF2, 3 days
# [5] = GIST-T1, absence of FGF2, 3 days
# [6] = GIST-T1, presence of added FGF2, 3 days
# [7] = GIST882, combination with imatinib
SMILES,Growth inhibition as single agent (GIST882 cells; [3]),Growth inhibition as single agent (GIST882 cells; [4]),Growth inhibition as single agent (GIST-T1 cells; [5]),Growth inhibition as single agent (GIST-T1 cells; [6]),Inhibition of proliferation as single agent (GIST430 cells),Growth suppression in combination with imatinib versus single agent treatment (GIST430 cells),Combination Index for 70% inhibition of GIST cell proliferation (GIST430 cells),Synergy Score for inhibition of GIST cell proliferation (GIST430 cells),Inhibition of proliferation as single agent (GIST882 cells),Growth suppression in combination with imatinib versus single agent treatment (GIST882 cells; [7]),Combination Index for 70% inhibition of GIST cell proliferation (GIST882 cells; GIST882),Synergy Score for inhibition of GIST cell proliferation (GIST882 cells; GIST882),Inhibition of proliferation as single agent (GIST-T1 cells),Combination Index for 70% inhibition of GIST cell proliferation (GIST-T1 cells; GIST-T1),Synergy Score for inhibition of GIST cell proliferation (GIST-T1 cells; GIST-T1),Inhibition of proliferation as single agent (GIST48 cells),Combination Index for 70% inhibition of GIST cell proliferation (GIST48 cells),Synergy Score for inhibition of GIST cell proliferation (GIST48 cells),other results
"CCN1CCN(c2ccc(Nc3cc(N(C)C(=O)Nc4c(Cl)c(OC)cc(OC)c4Cl)ncn3)cc2)CC1.O=P(O)(O)O [BGJ398, 3-(2,6-dichloro-3,5-dimethoxy-phenyl)-1-{6-[4-(4-ethyl-piperazin-1-yl)-phenylamino]-pyrimid-4-yl}-1-methyl-urea monophosphate]",did not significantly affect the viability,did not significantly affect the viability,did not significantly affect the viability,did not significantly affect the viability,–,–,–,–,–,–,–,–,–,–,–,–,–,–,"Combination effect on growth inhibition (GIST882 cells; GIST882, combination with imatinib, presence of FGF2 (20 ng/ml)): strong combination effects; Combination effect on growth inhibition (GIST-T1 cells; GIST-T1, combination with imatinib, presence of FGF2 (20 ng/ml)): strong combination effects; Combination effect on growth inhibition (GIST cell lines): strong combination effects; also recorded: synergy"
"Cn1c(=O)n(-c2ccc(C(C)(C)C#N)cc2)c2c3cc(-c4cnc5ccccc5c4)ccc3ncc21 [COMPOUND A, 2-methyl-2-[4-(3-methyl-2-oxo-8-quinolin-3-yl-2,3-dihydro-imidazo[4,5-c]quinolin-1-yl)-phenyl]-propionitrile]",–,–,–,–,inhibited the proliferation of all four cell-lines at low micromolar concentrations,growth suppression was observed in excess of the percent inhibition achieved by imatinib or COMPOUND A single agent treatment,0.260,2.06,inhibited the proliferation of all four cell-lines at low micromolar concentrations,growth suppression was observed in excess of the percent inhibition achieved by imatinib or COMPOUND A single agent treatment,0.194,5.07,inhibited the proliferation of all four cell-lines at low micromolar concentrations,0.493,1.10,inhibited the proliferation of all four cell-lines at low micromolar concentrations,1.25,0.38,–
"Nc1cc(C(F)(F)F)c(-c2cc(N3CCOCC3)nc(N3CCOCC3)n2)cn1 [COMPOUND C, 5-(2,6-di-morpholin-4-yl-pyrimidin-4-yl)-4-trifluoromethyl-pyridin-2-ylamine]",–,–,–,–,inhibited the proliferation of all four cell-lines at low micromolar concentrations,growth suppression was observed in excess of the percent inhibition achieved by imatinib or COMPOUND C single agent treatment,0.252,1.96,inhibited the proliferation of all four cell-lines at low micromolar concentrations,growth suppression was observed in excess of the percent inhibition achieved by imatinib or COMPOUND C single agent treatment,0.597,1.90,inhibited the proliferation of all four cell-lines at low micromolar concentrations,0.782,1.29,inhibited the proliferation of all four cell-lines at low micromolar concentrations,0.716,1.20,–
"Cc1nc(NC(=O)N2CCC[C@H]2C(N)=O)sc1-c1ccnc(C(C)(C)C(F)(F)F)c1 [COMPOUND D, (S)-pyrrolidine-1,2-dicarboxylic acid 2-amide 1-({4-methyl-5-[2-(2,2,2-trifluoro-1,1-dimethyl-ethyl)-pyridin-4-yl]-thiazol-2-yl}-amide)]",–,–,–,–,little or no effect,growth suppression was observed in excess of the percent inhibition achieved by imatinib or COMPOUND D single agent treatment,0.791,2.04,little or no effect,–,–,0.46,little or no effect,0.988,1.06,little or no effect,1.18,1.98,Growth suppression in combination with imatinib versus single agent treatment (GIST48 cells; combination with imatinib): growth suppression was observed in excess of the percent inhibition achieved by imatinib or COMPOUND D single agent treatment
"Cc1ccc(NC(=O)c2ccc(CN3CCN(C)CC3)cc2)cc1Nc1nccc(-c2cccnc2)n1 [imatinib, 4-(4-methylpiperazin-1-ylmethyl)-N-[4-methyl-3-(4-(pyridin-3-yl)pyrimidin-2-ylamino)phenyl]-benzamide, reference compound]",efficacious,less sensitive,efficacious,less sensitive,potently inhibited,–,–,–,potently inhibited,–,–,–,potently inhibited,–,–,imatinib resistant,–,–,"Recurrence-free survival (RFS) (GIST [1]; 400 mg/day for 12 months compared with placebo, after complete resection (ACOSOGZ9001)): significantly prolonged; RFS and overall survival (GIST [1]; 36 months versus 12 months adjuvant therapy, 400 mg once daily (SSGXVIII/AIO)): superior to 12 months; Progression-free survival (PFS) (GIST [2]; 800 mg/day compared to 400 mg/day, advanced GIST harboring KIT exon 9 mutations): significantly improves; Patients progressing after 2 years of first line therapy (GIST [2]; advanced GIST, first line therapy): more than 50%"
"Cc1cn(-c2cc(NC(=O)c3ccc(C)c(Nc4nccc(-c5cccnc5)n4)c3)cc(C(F)(F)F)c2)cn1 [nilotinib, 4-methyl-3-[[4-(3-pyridinyl)-2-pyrimidinyl]amino]-N-[5-(4-methyl-1H-imidazol-1-yl)-3-(trifluoromethyl)phenyl]benzamide, reference compound]",sensitive,–,sensitive,–,–,–,–,–,–,–,–,–,–,–,–,–,–,–,"GI50 shift in the presence of added FGF2 (GIST882 cells; GIST882, 3 days, with vs without added FGF2 (50, 25, 12 ng/ml)): greater than 10 fold; GI50 shift in the presence of added FGF2 (GIST-T1 cells; GIST-T1, 3 days, with vs without added FGF2 (50, 25, 12 ng/ml)): greater than 10 fold"
